Test results: ChEMBL document CHEMBL1133035, “Cysteine chloromethyl and diazomethyl ketone derivatives with potent anti-leukemic activity” (Bioorg Med Chem Lett, 2000)
Where a SMILES comes first, the peptide text is derived from it. The star is where a group is joined. Farnesyl = CC(C)=CCC/C(C)=C/CC/C(C)=C/C*; Boc = CC(C)(C)OC(=O)*; CHN2 = [N-]=[N+]=C*; CH2Cl = ClC*

Columns and labels:
MOLT-3 = assay: Anti-leukemic activity against Molt-3 (T-lineage ALL) human acute lymphoblastic leukemia (ALL) cell line; format: functional, cell-based
NALM-6 = assay: Anti-leukemic activity against Nalm-6 (B-lineage ALL) human acute lymphoblastic leukemia (ALL) cell line; format: functional, cell-based

| SMILES | IC50 (MOLT-3) | IC50 (NALM-6) |
| --- | --- | --- |
| CC(=O)N[C@@H](CSCC=C(C)C)C(=O)CCl | 7.9 µM | 12.6 µM |
| CCCCCCCCCCCCSC[C@H](NC(C)=O)C(=O)C=[N+]=[N-] | 22.9 µM | 15.4 µM |
| CC(=O)N[C@@H](CSC/C=C(\C)CC/C=C(\C)CCC=C(C)C)C(=O)CCl | 1.4 µM | 3 µM |
| CCCCCCCCCCCCSC[C@H](N)C(=O)CCl | 12.5 µM | 17.7 µM |
| CCCCCCCCCCCCSC[C@H](NC(C)=O)C(=O)CCl | 2.3 µM | 2 µM |
| CC(C)=CCC/C(C)=C/CC/C(C)=C/CSCCC(=O)CCl | 35.5 µM | 40.7 µM |
| CC(=O)N[C@@H](CSC/C=C(\C)CCC=C(C)C)C(=O)CCl | > 100 µM | > 100 µM |
| CC(C)=CCC/C(C)=C/CC/C(C)=C/CSC[C@H](NC(=O)CNC(=O)OC(C)(C)C)C(=O)CCl (Boc-Gly-Cys(Farnesyl)-CH2Cl) | 17.5 µM | 12.9 µM |
| CC(=O)N[C@@H](CSCC=C(C)C)C(=O)C=[N+]=[N-] | > 100 µM | > 100 µM |
| CC(=O)N[C@@H](CSC/C=C(\C)CCC=C(C)C)C(=O)C=[N+]=[N-] | > 100 µM | > 100 µM |
| CC(C)=CCC/C(C)=C/CC/C(C)=C/CSC[C@H](NC(=O)CNC(=O)OC(C)(C)C)C(=O)C=[N+]=[N-] (Boc-Gly-Cys(Farnesyl)-CHN2) | 84.5 µM | 51.3 µM |
| CC(C)=CCC/C(C)=C/CC/C(C)=C/CSCC(=O)CCl | > 100 µM | 84.3 µM |
| CC(=O)N[C@@H](CSC/C=C(\C)CC/C=C(\C)CCC=C(C)C)C(=O)C=[N+]=[N-] | 32.2 µM | 30.3 µM |
| CCCCCCCCCCCCSC[C@H](NC(=O)OC(C)(C)C)C(=O)CCl | 15.5 µM | 15.1 µM |
| CC(C)=CCC/C(C)=C/CC/C(C)=C/CSC[C@H](NC(=O)OC(C)(C)C)C(=O)CCl | 7.7 µM | 10.7 µM |
| CC(C)=CCC/C(C)=C/CC/C(C)=C/CSC[C@H](NC(=O)OC(C)(C)C)C(=O)C=[N+]=[N-] | 50.1 µM | 49.8 µM |
